Measurements from patent EP0873990A1, “BENZOIC ACID COMPOUNDS AND MEDICINAL USE THEREOF” (YOSHITOMI PHARMACEUTICAL INDUSTRIES, LTD., priority 1995, dated 1997).
Counter-ions that a name gives are not always drawn. Like-named read-outs stand apart in the source and are kept apart here. Values belong to the compound of their own block, whether it stands above or below them.

What was measured:
5-HT4 receptor = molecular target: T1, 5-HT4 receptor (Cavia porcellus, UniProt O70528); experiment: biochemical; format: binding, guinea pig
T1 construct: crude synapse membrane sample was prepared from guinea pig striatum; from tissue; host or cells: guinea pig striatum, crude synaptic membranes
T1 sequence (O70528 whole entry): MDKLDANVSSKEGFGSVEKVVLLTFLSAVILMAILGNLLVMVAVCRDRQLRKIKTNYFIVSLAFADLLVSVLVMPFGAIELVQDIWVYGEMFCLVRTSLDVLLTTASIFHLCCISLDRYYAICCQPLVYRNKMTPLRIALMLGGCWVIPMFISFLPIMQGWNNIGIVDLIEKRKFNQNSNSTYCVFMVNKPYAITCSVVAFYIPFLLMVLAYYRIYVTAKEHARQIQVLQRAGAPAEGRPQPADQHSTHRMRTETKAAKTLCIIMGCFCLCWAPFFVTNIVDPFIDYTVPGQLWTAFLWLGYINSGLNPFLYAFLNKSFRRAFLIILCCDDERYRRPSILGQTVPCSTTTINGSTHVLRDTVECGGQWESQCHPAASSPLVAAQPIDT
Experimental: Specifically, crude synapse membrane sample was prepared from guinea pig striatum, suspended in 50 mM HEPES buffer (pH 7.4) and used for testing. The test compound having several different concentrations and [3H]GR113808 (final concentration 0.1 nM) were added to this suspension and allowed to react at 37°C. Thirty minutes later, the reaction mixture was filtered by suction with cell harvester. The filter was washed with 50 mM HEPES buffer, and the radioactivity on the filter was counted by liquid scintillation counter. The non-specific binding was determined in the presence of 1 µM GR113808. The concentration of the test compound necessary for 50% inhibition (IC50) was determined from a graph and converted to a Ki value.

5-HT3 receptor = molecular target: T2, 5-HT3 receptor (Rattus norvegicus, UniProt P35563); experiment: 5-HT3 receptor binding test ([3H]Granisetron, crude synapse membrane from cerebral cortex); details: for Ki: IC50 converted to Ki, read-out: Affinity for receptor (Ki value, nM) 5-HT3
T2 construct: crude synapse membrane sample was prepared from rat cerebral cortex; from tissue; host or cells: rat cerebral cortex, crude synaptic membranes
T2 sequence (P35563 24-483): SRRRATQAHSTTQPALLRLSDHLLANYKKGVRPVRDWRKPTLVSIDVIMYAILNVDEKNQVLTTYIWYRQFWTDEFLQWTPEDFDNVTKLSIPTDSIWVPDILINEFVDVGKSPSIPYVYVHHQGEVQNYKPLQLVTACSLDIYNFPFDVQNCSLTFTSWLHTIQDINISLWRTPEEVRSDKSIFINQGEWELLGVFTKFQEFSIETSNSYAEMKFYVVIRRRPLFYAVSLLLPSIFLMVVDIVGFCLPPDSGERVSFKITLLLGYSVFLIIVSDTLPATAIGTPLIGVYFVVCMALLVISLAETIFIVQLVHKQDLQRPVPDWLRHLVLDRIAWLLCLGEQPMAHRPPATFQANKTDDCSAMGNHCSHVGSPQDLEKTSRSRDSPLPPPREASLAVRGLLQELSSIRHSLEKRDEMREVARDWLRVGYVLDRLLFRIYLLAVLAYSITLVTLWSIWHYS
Experimental: 148, pp. 297-299 (1988)], a specific 5-HT3 receptor binding test was run using, as a tracer ligand, endo-1-methyl-N-(9-methyl-9-azabicyclo[3.3.1]non-3-yl)-1H-indazole-3-carboxamide substituted by tritium (hereinafter to be referred to as [3H]Granisetron). Specifically, crude synapse membrane sample was prepared from rat cerebral cortex, suspended in 50 mM HEPES buffer (pH 7.4) and used for testing. The test compound having several different concentrations and [3H]Granisetron (final concentration 1.0 nM) were added to this suspension and allowed to react at 25°C. Thirty minutes later, the reaction mixture was filtered by suction with cell harvester. The filter was washed with 50 mM Tris buffer (pH 7.4), and the radioactivity on the filter was counted using liquid scintillation counter or β-plate. The non-specific binding was determined in the presence of 1 µM Tropisetron. The concentration of the test compound necessary for 50% inhibition (IC50) was determined from a graph and converted to a Ki value.

Male Hartley guinea pigs = experiment: Promotion of colonic transit in guinea pig; format: in vivo; details: for ratio of colonic transit (%): colon removed one hour later; for promotion (%) of colonic transit: versus vehicle
Experimental: Male Hartley guinea pigs were subjected to laparotomy under ether anesthesia, and a polyethylene tube was inserted into the beginning of colon. The other end was passed under the skin to be exposed from the neck and fixed there. At day 5 postoperation, Evans blue solution was injected into the colon through the polyethylene tube. One hour later, the colon was removed, and the range of the Evans blue solution was measured, which was calculated relative to the entire length of the colon and expressed as transit ratio. The compound of Example 57 was orally administered one hour before injection of the Evans blue solution.

Male ddY mice = experiment: Stimulation of defecation in mouse; format: in vivo; details: for promotion (%) of number / promotion (%) of wet weight: 2 hours, versus vehicle; for number (of feces) / wet weight (mg) (of feces): feces excreted for 2 hours after oral administration, n=20
Experimental: Male ddY mice were placed in partition box, and the number and wet weight of feces excreted for 2 hours from immediately after oral administration of the compound of Example 57 were measured.

male Wistar rats = experiment: Promotion of gastric emptying in rats; format: in vivo, rat; details: for number of pellets (remaining in stomach): stomach removed one hour later; for promotion (%) of gastric emptying: from comparison with remaining pellets in vehicle group
Experimental: Barium pellets (ca. 1 mm diameter) coated with polystyrene was intragastrically administered to male Wistar rats. One hour later, stomach was removed, and the remaining pellets were counted. The compound of Example 57 was orally administered one hour before administration of the pellets. The promotion ratio was calculated from the comparison with the number of remaining pellets in the group administered with vehicle.

[1] = [3H]GR113808 0.1 nM, guinea pig striatum membranes, 37°C, 30 min, IC50 converted to Ki, read-out: Affinity for receptor (Ki value, nM) 5-HT4
[2] = values marked * are IC50, [3H]Granisetron 1.0 nM, rat cerebral cortex membranes, 25°C, 30 min, read-out: Affinity for receptor 5-HT3 (∗ shows IC50)
[3] = [3H]Granisetron 1.0 nM, rat cerebral cortex membranes, 25°C, 30 min

Ki (5-HT4 receptor; [1]): 0.51 nM
IC50 (5-HT3 receptor; [2]): > 1000 nM
Structure (SMILES): COc1cc(N)c(Cl)cc1C(=O)NCC1CCN(CCCCCNCC2CCCCC2)CC1 [Example 11, 4-amino-5-chloro-N-((1-(5-(cyclohexylmethylamino)pentyl)piperidin-4-yl)methyl)-2-methoxybenzamide]

Ki (5-HT4 receptor; [1]): 0.97 nM
IC50 (5-HT3 receptor; [2]): > 1000 nM
Structure (SMILES): COc1cc(N)c(Cl)cc1C(=O)NCC1CCN(CCCCCNCc2ccc3ccccc3c2)CC1 [Example 14, 4-amino-5-chloro-2-methoxy-N-((1-(5-(2-naphthylmethylamino)pentyl)piperidin-4-yl)methyl)benzamide]

Ki (5-HT4 receptor; [1]): 0.94 nM
IC50 (5-HT3 receptor; [2]): > 1000 nM
Structure (SMILES): CCN(CCCCCN1CCC(CNC(=O)c2cc(Cl)c(N)cc2OC)CC1)Cc1ccc(F)cc1 [Example 25, 4-amino-5-chloro-N-((1-(5-(N-ethyl-N-(4-fluorobenzyl)amino)pentyl)piperidin-4-yl)methyl)-2-methoxybenzamide]

Ki (5-HT4 receptor; [1]): 0.84 nM
IC50 (5-HT3 receptor; [2]): > 1000 nM
Structure (SMILES): CCCN(CCCCCN1CCC(CNC(=O)c2cc(Cl)c(N)cc2OC)CC1)Cc1ccccc1 [Example 33, 4-amino-5-chloro-2-methoxy-N-((1-(5-(N-n-propyl-N-benzylamino)pentyl)piperidin-4-yl)methyl)benzamide]

Ki (5-HT4 receptor; [1]): 0.62 nM
IC50 (5-HT3 receptor; [2]): > 1000 nM
Structure (SMILES): CCN(CCCCN1CCC(CNC(=O)c2cc(Cl)c(N)cc2OC)CC1)Cc1ccc(Cl)c(Cl)c1 [Example 42, 4-amino-5-chloro-N-((1-(4-(N-(3,4-dichlorobenzyl)-N-ethylamino)butyl)piperidin-4-yl)methyl)-2-methoxybenzamide]

Ki (5-HT4 receptor; [1]): 0.67 nM
IC50 (5-HT3 receptor; [2]): > 1000 nM
Structure (SMILES): CCN(CCCCCCN1CCC(CNC(=O)c2cc(Cl)c(N)cc2OC)CC1)Cc1ccccc1 [Example 44, 4-amino-5-chloro-N-((1-(6-(N-ethyl-N-benzylamino)hexyl)piperidin-4-yl)methyl)-2-methoxy benzamide]

Ki (5-HT4 receptor; [1]): 2.7 nM
IC50 (5-HT3 receptor; [2]): > 1000 nM
Structure (SMILES): CCN(CCCCCCN1CCC(CNC(=O)c2cc(Cl)c(N)cc2OC)CC1)Cc1ccc([N+](=O)[O-])cc1 [Example 47, 4-amino-5-chloro-N-((1-(6-(N-ethyl-N-(4-nitrobenzyl)amino)hexyl)piperidin-4-yl)methyl)-2-methoxybenzamide]

Ki (5-HT4 receptor; [1]): 3.5 nM
Ki (5-HT3 receptor; [3]): 370 nM
Structure (SMILES): COc1cc(N)c(Cl)cc1C(=O)NCC1CCN(CCCCCOCc2ccccc2)CC1 [Example 53, 4-amino-N-((1-(5-benzyloxypentyl)piperidin-4-yl)methyl)-5-chloro-2-methoxybenzamide]

Ki (5-HT4 receptor; [1]): 1.6 nM
Ki (5-HT3 receptor; [3]): 340 nM
Structure (SMILES): COc1cc(N)c(Cl)cc1C(=O)NCC1CCN(CCCCCSCc2ccccc2)CC1 [Example 54, 4-amino-N-((1-(5-benzylthiopentyl)piperidin-4-yl)methyl)-5-chloro-2-methoxybenzamide]

Ki (5-HT4 receptor; [1]): 2.4 nM
IC50 (5-HT3 receptor; [2]): > 1000 nM
Structure (SMILES): COc1cc(N)c(Cl)cc1C(=O)NCC1CCN(CCCCCC(=O)c2ccccc2)CC1 [Example 57, 4-amino-5-chloro-2-methoxy-N-((1-(6-oxo-6-phenylhexyl)piperidin-4-yl)methyl)benzamide]
ratio of colonic transit (%) (Male Hartley guinea pigs; 0.1 mg/kg p.o. one hour before Evans blue injection, n=16): 54.5±8.0%
promotion (%) of colonic transit (Male Hartley guinea pigs; 0.1 mg/kg p.o.): 23%
ratio of colonic transit (%) (Male Hartley guinea pigs; 0.3 mg/kg p.o. one hour before Evans blue injection, n=16): 54.7±5.9%
promotion (%) of colonic transit (Male Hartley guinea pigs; 0.3 mg/kg p.o.): 24%
ratio of colonic transit (%) (Male Hartley guinea pigs; 1 mg/kg p.o. one hour before Evans blue injection, n=15, P<0.05): 71.8±6.9 %
promotion (%) of colonic transit (Male Hartley guinea pigs; 1 mg/kg p.o.): 62%
ratio of colonic transit (%) (Male Hartley guinea pigs; 3 mg/kg p.o. one hour before Evans blue injection, n=14, P<0.05): 73.2±6.3 %
promotion (%) of colonic transit (Male Hartley guinea pigs; 3 mg/kg p.o.): 66%
promotion (%) of number (Male ddY mice; 0.1 mg/kg p.o.): 70%
promotion (%) of wet weight (Male ddY mice; 0.1 mg/kg p.o.): 69%
number (of feces) (Male ddY mice; 0.1 mg/kg p.o.): 3.4±0.3
wet weight (mg) (of feces) (Male ddY mice; 0.1 mg/kg p.o.): 59.2 ± 6.5 mg
promotion (%) of number (Male ddY mice; 0.3 mg/kg p.o.): 135%
promotion (%) of wet weight (Male ddY mice; 0.3 mg/kg p.o.): 136%
number (of feces) (Male ddY mice; 0.3 mg/kg p.o., P<0.01): 4.7±0.5
wet weight (mg) (of feces) (Male ddY mice; 0.3 mg/kg p.o., P<0.01): 82.7 ± 11.5 mg
promotion (%) of number (Male ddY mice; 1 mg/kg p.o.): 130%
promotion (%) of wet weight (Male ddY mice; 1 mg/kg p.o.): 120%
number (of feces) (Male ddY mice; 1 mg/kg p.o., P<0.01): 4.6±0.6
wet weight (mg) (of feces) (Male ddY mice; 1 mg/kg p.o., P<0.01): 77.2 ± 11.9 mg
promotion (%) of number (Male ddY mice; 3 mg/kg p.o.): 135%
promotion (%) of wet weight (Male ddY mice; 3 mg/kg p.o.): 132%
number (of feces) (Male ddY mice; 3 mg/kg p.o., P<0.01): 4.7±0.5
wet weight (mg) (of feces) (Male ddY mice; 3 mg/kg p.o., P<0.01): 81.6 ± 10.4 mg
number of pellets (remaining in stomach) (male Wistar rats; 0.3 mg/kg p.o. one hour before barium pellets): 28.2 ±1.3
promotion (%) of gastric emptying (male Wistar rats; 0.3 mg/kg p.o.): 0%
number of pellets (remaining in stomach) (male Wistar rats; 1 mg/kg p.o. one hour before barium pellets): 24.3 ±2.5
promotion (%) of gastric emptying (male Wistar rats; 1 mg/kg p.o.): 14%
number of pellets (remaining in stomach) (male Wistar rats; 3 mg/kg p.o. one hour before barium pellets, P<0.05): 19.0 ±2.6
promotion (%) of gastric emptying (male Wistar rats; 3 mg/kg p.o.): 32%
number of pellets (remaining in stomach) (male Wistar rats; 10 mg/kg p.o. one hour before barium pellets, P<0.01): 13.3 ±3.0
promotion (%) of gastric emptying (male Wistar rats; 10 mg/kg p.o.): 53%

Ki (5-HT4 receptor; [1]): 1.5 nM
IC50 (5-HT3 receptor; [2]): > 1000 nM
Structure (SMILES): COc1cc(N)c(Cl)cc1C(=O)NCC1CCN(CCCCCCC(=O)c2ccccc2)CC1 [Example 58, 4-amino-5-chloro-2-methoxy-N-((1-(7-oxo-7-phenylheptyl)piperidin-4-yl)methyl)benzamide]

Ki (5-HT4 receptor; [1]): 1.8 nM
IC50 (5-HT3 receptor; [2]): > 1000 nM
Structure (SMILES): COc1ccc(C(=O)CCCCCN2CCC(CNC(=O)c3cc(Cl)c(N)cc3OC)CC2)cc1Cl [Example 73, 4-amino-5-chloro-N-((1-(6-(3-chloro-4-methoxyphenyl)-6-oxohexyl)piperidin-4-yl)methyl)-2-methoxybenzamide]

Ki (5-HT4 receptor; [1]): 5.1 nM
IC50 (5-HT3 receptor; [2]): > 1000 nM
Structure (SMILES): COc1ccc(C(=O)CCCCCN2CCC(CNC(=O)c3cc(Cl)c(N)cc3OC)CC2)cc1F [Example 74, 4-amino-5-chloro-N-((1-(6-(3-fluoro-4-methoxyphenyl)-6-oxohexyl)piperidin-4-yl)methyl)-2-methoxybenzamide]

Ki (5-HT4 receptor; [1]): 1.5 nM
IC50 (5-HT3 receptor; [2]): > 1000 nM
Structure (SMILES): COc1cc(N)c(Cl)cc1C(=O)NCC1CCN(CCCCCC(=O)c2ccc(O)cc2)CC1 [Example 75, 4-amino-5-chloro-N-((1-(6-(4-hydroxyphenyl)-6-oxohexyl)piperidin-4-yl)methyl)-2-methoxybenzamide]

Ki (5-HT4 receptor; [1]): 0.34 nM
IC50 (5-HT3 receptor; [2]): > 1000 nM
Structure (SMILES): COc1cc(N)c(Cl)cc1C(=O)NCC1CCN(CCCCCC(=O)c2cn(C)c3ccccc23)CC1 [Example 77, 4-amino-5-chloro-2-methoxy-N-((1-(6-(1-methyl-1H-indol-3-yl)-6-oxohexyl)piperidin-4-yl)methyl)benzamide]

Ki (5-HT4 receptor; [1]): 0.5 nM
IC50 (5-HT3 receptor; [2]): > 1000 nM
Structure (SMILES): COc1cc(N)c(Cl)cc1C(=O)NCC1CCN(CCCCCC(=O)c2cccc3ccccc23)CC1 [Example 81, 4-amino-5-chloro-N-((1-(6-(1-naphthyl)-6-oxohexyl)piperidin-4-yl)methyl)-2-methoxybenzamide hydrochloride]

Ki (5-HT4 receptor; [1]): 1.4 nM
IC50 (5-HT3 receptor; [2]): > 1000 nM
Structure (SMILES): COc1cc(N)c(Cl)cc1C(=O)NCC1CCN(CCCCCS(=O)(=O)c2ccccc2)CC1 [Example 84, 4-amino-5-chloro-2-methoxy-N-((1-(5-phenylsulfonylpentyl)piperidin-4-yl)methyl)benzamide hydrochloride]

Structure (SMILES): CCn1cc(C(=O)CCCCCN2CCC(CNC(=O)c3cc(Cl)c(N)cc3OC)CC2)c2ccccc21 [Example 93, 4-amino-5-chloro-2-methoxy-N-((1-(6-(1-ethyl-1H-indol-3-yl)-6-oxohexyl)piperidin-4-yl)methyl)benzamide]
Ki (5-HT4 receptor): 0.47 nM
IC50 (5-HT3 receptor): > 1000 nM
